For one compound, EC50 results are on record in patent US7754896B2, “Indol-alanine derivatives as selective S1P4-agonists” (Novartis AG, priority 2004, dated 2010).

This assay deals with T1, S1P2 (Homo sapiens, UniProt O95136).
T1 construct: expressed in transfected cells
The assay is described as follows: Calcium mobilization assay, CHO cells expressing S1P2. The assay is classed as cell-based. The text has this: Human S1P1 (GenBank™ accession number M31210) and S1P3 (GenBank™ accession number X83864) cDNA containing the myc sequence in front to the human S1P1 and S1P3 sequences are inserted in the pcDNA 3.1 vector. The vectors are sequenced to completion to confirm the correctness of the construct. The human S1P2 (GI: 4090955, TREMBL: 0195136) is cloned by a PCR based method. Lung cDNA (marathon cDNA) is obtained (BD Biosciences Chontech, Palo Alto, Calif. 94303, USA). […] The amplified product of around 1100 bp is analyzed by standard agarose gel-electrophoresis. […]
CHO cells are plated in black Costar plate (96 or 384 well, 50,000 cells or 12,500 cells, respectively) in a MEM with FCS and cultured for 20-24 h at 37° C. in a CO2 incubator. […] After measuring the baseline for 40 sec, the agonist in HBSS is added and the fluorescence is measured at intervals of 2 sec for 3 to 5 min. […]
The compounds mentioned in this application are tested for specificity, e.g. the activity they have in the parental cell line prior transformation with the S1P4 cDNA and for selectivity on CHO cells lines transformed with the S1P1, S1P2, S1P3, and S1P5. […] For example, S1P4 specific and selective compounds may have an EC50 (apparent EC50) measured at S1P4 that is 10×, preferably 100× lower that that measured in wild type CHO cells or In cell expressing any of the other four S1P receptors.

T1 sequence (O95136 whole entry): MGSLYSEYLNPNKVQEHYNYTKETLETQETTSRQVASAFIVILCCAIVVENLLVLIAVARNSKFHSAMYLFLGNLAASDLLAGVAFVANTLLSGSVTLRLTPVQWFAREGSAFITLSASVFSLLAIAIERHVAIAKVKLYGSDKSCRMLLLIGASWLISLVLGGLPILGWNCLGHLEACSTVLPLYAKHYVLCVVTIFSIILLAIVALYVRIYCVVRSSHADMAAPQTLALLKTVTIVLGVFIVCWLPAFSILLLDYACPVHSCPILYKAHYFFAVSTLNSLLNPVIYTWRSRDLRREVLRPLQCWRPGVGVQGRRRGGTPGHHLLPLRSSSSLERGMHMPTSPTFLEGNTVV

Usually EC50 stands for the midpoint of the concentration-response curve. `NC(CNC(=O)c1cc2c(-c3ccccc3Cc3ccccc3)cccc2[nH]1)C(=O)O` (stereo not shown) [Example 2]: the EC50 was > 6 µM.
